Values of other authors, collected in US20220054615A1 (priority 2018, published 2022).

How the values were obtained:
IgG2a = conditions: mouse, in vivo
[1] = system: human peripheral blood mononuclear cells (PBMCs)

CCCCCCCCCCCC(=O)CC(=O)N[C@H](COCC[C@@H](CCCCCCC)OC(=O)CCCCCCCCCCC)COP(=O)([O-])OCCNC(=O)NCCOP(=O)([O-])OC[C@@H](COCC[C@@H](CCCCCCC)OC(=O)CCCCCCCCCCC)NC(=O)CC(=O)CCCCCCCCCCC.[Na+].[Na+] [E6020, dodecanoic acid, (1R,6R, 22R, 27R)-1,27-dihexyl-9,19-dihydroxy-9,19-dioxido-14-oxo-6,22-bis [(1,3-di oxotetradecyl)amino]-4,8,10, 18, 20, 24-hexaoxa-13,15-di aza-9,19-dephosphaheptacosane-1,27-diyl ester, disodium salt]
enhance: IgG2a (IgG2a) | GM-CSF, IL-1, IL-6 and TNF-α [1] | GM-CSF, IL-1, IL-6 and TNF-α (mouse spleen)
